In series [1] the test system is EBOV (Makona variant, EBOV/Mak). Format: cell-based, Ebola virus.
The subject of another series is EBOV/Mak. Further details: species or system Rhesus macaques. To be noted: rhesus monkey, in vivo.
The subject of series [2] is monocyte-derived macrophages (MDMs).
The conditions of series [3]: rhesus monkey, in vivo.
The conditions of series [4]: rhesus monkey, in vivo. This is another data set of the same source.
For series [5] the following is noted: rhesus monkey, in vivo. This is another data set of the same source.
The test system of another series is EBOV. As to conditions: cited from earlier work.
The nature of the next series: in vivo. To be noted: both, rhesus monkey, po; for AUC(0-t): AUClast.
A short description of series [6]: in vitro. To be noted: African green monkey.
The conditions of series [7]: human, in vivo, 10 mg/kg; cited from earlier work.
Series [8] can be described thus: in vitro. As to conditions: human.
Series [9] is described as follows: in vitro. As to conditions: human. The source holds these as a separate data set.
Setting [10] is: read-out: IC50 range over cell types.
The mark [11] stands for this setting: 40 mg/kg, elimination phase half-life (t1/2), range among individual animals.

Where “and” joins values, the source holds several entries; their conditions need not be identical. Equal entries are not always repeated. Entries after “also recorded” stand apart in the source; their conditions may differ. Structures can show the parent of a compound that is named as a salt. Where two headings read alike, the source gives them in different places.

As to `CCN(CC)Cc1cc(Nc2ccnc3cc(Cl)ccc23)ccc1O` [Amodiaquine dihydrochloride hydrate, amodiaquine dihydrochloride dihydrate], in series [1], the Max effect was 100% at 30 and 100% at 40. The IC50 in series [1] (setting [10]) was 3.2 to 27.9 µM. Further, in the series on EBOV/Mak, the “RNA levels at necropsy” value was 10^9–10^11 viral RNA copies/ml; the “clinical signs, febrile illness, weight loss versus control” value is reported as “Clinical signs did not differ significantly between the groups”; the “hematology and serum chemistry versus control” value is reported as “followed the same trends as the control animal values”; the “plasma viral load (RT-qPCR, plaque assay), words” value is listed as “did not reduce plasma viral RNA copies or infectious virus titer”. Besides, in the series with EBOV/Mak, the “survival / efficacy” value was “All animals were euthanized or succumbed to disease by day 8 postexposure; also recorded: did not result in a survival benefit or decrease of disease signs; also recorded: did not result in a survival benefit or decrease of disease symptoms; also recorded: did not have a beneficial effect on survival or the symptoms of EVD”. The “Median time to disposition” value in the series on EBOV/Mak (po, 20 mg/kg) is 7 days and 6 days. Also, in series [2], the “cytotoxicity” value is “elevated cytotoxicity”. For the same compound, in series [3] (both, po, 20 mg/kg), the “Tmax, mean” value was 3 h. Moreover, in series [3] (20 mg/kg), the “Cmax (range)” value is listed as 7.8‒31.9. In [4], the “ALT and AST elevation” value is 2.6- to 6.3 fold; the blood pressure result is reported as “lower blood pressure readings than at predose”; the clinical observations entry is “hypoactivity, shivering (muscle tremors) and/or diarrhea”; the tolerability result was “well-tolerated”. Moreover, the “plasma levels of AQ” value in series [5] was “negligible levels of AQ in all but five plasma samples”. In the series with EBOV, the “in vitro EBOV inhibition” value is “potent EBOV inhibitor” and the “in vitro antiviral activity against EBOV” value is recorded as “known to have in vitro antiviral activity against EBOV”. Besides, in “in vivo” (20 mg/kg, mean), the AUC(0-t) amounted to 74 ng·h/mL and the Cmax was 17.1 ng/mL. Besides, the time to peak (Tmax) in the series “in vivo” (20 mg/kg, Tmax, mean) was 5 h. The same compound had an AUC(0-inf) in the series “in vivo” (40 mg/kg, AUCinf, mean) of 324 ng·h/mL. In “in vivo” (40 mg/kg, mean), this compound displayed an AUC(0-t) of 258 ng·h/mL and a Cmax of 53.7 ng/mL. In addition, in “in vivo” (40 mg/kg, Tmax (range)), the time to peak (Tmax) lay in the range of 0.5 to 8 h. Further, the Tmax in the series “in vivo” (40 mg/kg, Tmax, mean) turned out to be 5 h. Moreover, in the series “in vivo” (setting [11]), the half-life lay within 180 to 1680 min. In “in vitro [6]”, the CC50 is 40.1 µM. Moreover, the Cmax in [7] is listed as 29.2 ± 10.9 ng/mL.
`C[C@H]1[C@H](OC(=O)CCC(=O)O)O[C@@H]2O[C@@]3(C)CC[C@H]4[C@H](C)CC[C@@H]1[C@@]24OO3` [Artesunate, artesunate]: in [1], the “in vitro antiviral activity against EBOV” value was “weak or undetectable; also recorded: minimal to no in vitro antiviral activity”. Further, the IC50 in [1] (read-out: IC50) amounted to 17.2 ± 1.2 µM. Further, in the series with EBOV, the “activity against EBOV” value is reported as “no activity against EBOV has been demonstrated”. In addition, the CC50 in the series “in vitro [6]”, in the series “in vitro [8]” and in the series “in vitro [9]” was more than 40 µM throughout.
As for `C[C@H]1[C@@H](O)O[C@@H]2O[C@@]3(C)CC[C@H]4[C@H](C)CC[C@@H]1[C@@]24OO3` [Dihydroartimesinin, dihydroartemisinin], in series [1], the Max effect was 64% at 40 and 49% at 40; the “in vitro antiviral activity against EBOV” value was “weak or undetectable; also recorded: minimal to no in vitro antiviral activity”. Moreover, the IC50 in [1] (read-out: IC50) was 31.5 µM and 35.2 µM. In “in vitro [6]”, the CC50 was more than 40 µM. The same compound came in with a CC50 in “in vitro [8]” of more than 40 µM.
On to `CCNCc1cc(Nc2ccnc3cc(Cl)ccc23)ccc1O` [N-Desethylamodiaquine hydrochloride, N-desethylamodiaquine hydrochloride], for which, in series [1], the Max effect is 100% at 40 and 80% at 40. Further, the IC50 in [1] (setting [10]) was 2.8 to 30 µM. In addition, the “cytotoxicity” value in series [2] is reported as “elevated cytotoxicity”. Moreover, the “AUClast and AUCinf, fold higher for DEAQ than for AQ” value in series [3] (both, po) was 2.5- to 3 fold. The compound further had a t1/2 in [3] (both, po, 20 mg/kg) of 15 h. Further, in [3] (20 mg/kg), the “Cmax (range)” value is 203‒369. For the same compound, the “plasma levels of DEAQ” value in series [5] (Chinese origin) was “detectable in all treated animals from both groups 2 and 3”. For the same compound, the “in vitro antiviral activity against EBOV” value with EBOV is given as “known to have in vitro antiviral activity against EBOV”. Also, the Cmax in the series “in vivo” (20 mg/kg, mean) was 287 ng/mL; in the series “in vivo” (40 mg/kg, mean) it was 618 ng/mL; in [7], 268.7 ± 70.8 ng/mL. Further, the half-life in “in vivo” (20 mg/kg, t1/2, mean) was 936 min; in “in vivo” (setting [11]), 720 to 3060 min. Moreover, the Tmax in the series “in vivo” (40 mg/kg, Tmax (range)) was 0.5 to 8 h; in the series “in vivo” (40 mg/kg, Tmax, mean), 5 h. Also, the CC50 in the series “in vitro [6]” is 33.1 µM.

These data come from article PMC6934550 (Scientific Reports, 2019).
